From paper PMC12471299, “Secondary Metabolites of the Marine Sponge-Derived Fungus Aspergillus subramanianii 1901NT-1.40.2 and Their Antimicrobial and Anticancer Activities” (Marine Drugs, 2025)
≈ marks a conversion by molar mass, not a printed value. Where “and” joins values, the source holds several entries; their conditions need not be identical. Identical values can stand only once. Like-named read-outs stand apart in the source and are kept apart here.

Assays:
[1] = test system: Escherichia coli VKPM (B-7935); experiment: Biofilm formation assay (MTT); type: cell-based; conditions: E. coli, 18 h
Summary of the method: (§1)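 Strains were precultured on Mueller Hinton agar at 37 °C for 24 h, then exposed to compound at up to 100 µM. Growth was read as OD620 after 18 h; 18 h biofilm formation was quantified with MTT at OD570. Values are MIC50, the lowest concentration cutting growth or biofilm by 50% versus 1% DMSO/PBS control.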

Candida albicans KMM 455 = experiment: Biofilm formation assay (MTT); type: cell-based; conditions: C. albicans, 18 h
Summary of the method: as §1

MCF-7 cells [2] = experiment: Cell cycle investigation (propidium iodide, flow cytometry); type: cell-based, human
Protocol: After incubation, the cells were trypsinized, harvested, washed with PBS, and fixed with ice-cold 70% ethanol in a dropwise manner prior to storage at −20 °C overnight. The cells were then washed with PBS, incubated with 200 μg/mL RNAse (PanReac, AppliChem, Darmstadt, Germany) and 20 μg/mL of propidium iodide (Sigma-Aldrich, St. Louis, MO, USA) for 30 min at 37 °C, and DNA content was analyzed using a NovoCyte flow cytometer (Agilent, Austin, TX, USA). The proportion of cells in each cell cycle phase was expressed as a percentage.

[3] = Competitive assay with 4-hydroxytamoxifen (MTT viability); type: cell-based; conditions: human
Protocol: Since estrogen-dependent breast cancer MCF-7 cells were proposed to be more sensitive to compound 8, the estrogen receptor (ER) dependence of petromurin C (8) cytotoxicity to estrogen-dependent MCF-7 cells was investigated using 4-hydroxytamoxifen (4-OHT) as an ERs antagonist. MCF-7 cells were pretreated with 4-OHT at a nontoxic concentration of 0.1 µM for 1 h, and 8 at 10 µM was added for 48 h. The antagonist of estrogenic receptors, 4-hydroxytamoxifen (Lumiprobe, Moscow, Russia), was dissolved in DMSO at a concentration of 10 mM and stored with protection from light. The probe was then added to the cells at a final concentration of 1 µM. The investigated compounds were added to the cells after 1 h. Then the viability of MCF-7 cells was measured after 48 h using MTT assay (Section 4.8.3).

MCF-7 cells [4] = experiment: MCF-7 cell colony formation (clonogenic) assay; type: cell-based; conditions: Homo sapiens, MCF7, 240 h, 10 d
Protocol: The effect of the compound on colony formation by MCF-7 cells was assessed using a clonogenic assay. The concentration of MCF-7 cells was 0.33 × 10^3/mL. The cells were incubated for 10 d, fixed with methanol (25 min), stained with 0.5% crystal violet solution (25 min), and washed with PBS. The grown colonies were counted using a BIO-PRINT-Cx4 Edge-Fixed Pad-Container (Vilber, Collegien, France). The results are presented as colony inhibition compared to that of the control.

HaCaT keratinocytes = experiment: Cell viability assay (MTT); type: cell-based, human
Summary of the method: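 Cells were seeded (H9c2 3 × 10^3, MDA-MB-231 and MCF-10A 5 × 10^3, HaCaT 1 × 10^4 cells/well), left 24 h, then exposed to compounds up to 100 µM for 24 h or 48 h at 37 °C, 5% CO2. Viability was read by MTT and expressed as percentage of DMSO control.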

A549 cells = test system: A549 cells; parameters: method as in PMID 29642369; conditions: A549, at 100 µM; cited from earlier work
[5] = test system: Escherichia coli VKPM (B-7935); experiment: Antimicrobial assay, growth inhibition (optical density); type: cell-based; conditions: E. coli, 18 h
Summary of the method: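 Compound tested from 100 µM downward; 1% DMSO in PBS as negative control. Planktonic growth read as OD at 620 nm after 18 h; 18 h biofilm formation quantified with MTT at 570 nm. Values as percent of control, reported as minimal concentration giving 50% reduction (MIC50).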

HepG2 cells = test system: HepG2 cells; parameters: method as in PMID 29642369; conditions: HepG2, at 100 µM; cited from earlier work

**Q.** For `COc1c(OC)c(-c2c[nH]c3ccc(O)cc23)c(OC)c(OC)c1-c1c[nH]c2ccccc12` [Compound 8, petromurin C], which “Biofilm formation, MIC50” value [1] is on record?
**A.** Its value is 83.01 µM and 83.01 ± 6.42 µM.

**Q.** What about the “Biofilm formation, MIC50” value (Candida albicans KMM 455) of the same molecule?
**A.** The value was 24.12 µM and 24.12 ± 3.07 µM.

**Q.** And the “Cell Disturbance, G1 Phase” value (MCF-7 cells [2]; 1 h, 5 µM)?
**A.** The value was 22.69 ± 0.42%.

**Q.** What about the “Cell Disturbance, G2/M Phase” value (MCF-7 cells [2]; 1 h, 5 µM) of the same molecule?
**A.** Its value is 29.91 ± 1.95%.

**Q.** What about the “Cell Disturbance, S Phase” value (MCF-7 cells [2]; 1 h, 5 µM) of the same molecule?
**A.** The value was 45.52 ± 1.05%.

**Q.** And the “Cell Disturbance, G1 Phase” value (MCF-7 cells [2]; 1 h, 10 µM)?
**A.** Its value is 21.37 ± 2.18%.

**Q.** What about the “Cell Disturbance, G2/M Phase” value (MCF-7 cells [2]; 1 h, 10 µM) of the same molecule?
**A.** The value was 25.9% and 25.96 ± 0.62 %.

**Q.** And the “Cell Disturbance, S Phase” value (MCF-7 cells [2]; 1 h, 10 µM)?
**A.** The value was 53.1% and 53.15 ± 1.53 %.

**Q.** What about the “Cell Disturbance, G1 Phase” value (MCF-7 cells [2]; 3 h, 5 µM) of the same molecule?
**A.** The value was 26.2% and 26.20 ± 1.17 %.

**Q.** What about the “Cell Disturbance, G2/M Phase” value (MCF-7 cells [2]; 3 h, 5 µM) of the same molecule?
**A.** Its value is 17.2% and 17.20 ± 1.23 %.

**Q.** What about the “Cell Disturbance, S Phase” value (MCF-7 cells [2]; 3 h, 5 µM) of the same molecule?
**A.** The value was 56.6% and 56.60 ± 1.25 %.

**Q.** And the “Cell Disturbance, G1 Phase” value (MCF-7 cells [2]; 3 h, 10 µM)?
**A.** The value was 33.82 ± 0.98%.

**Q.** And the “Cell Disturbance, G2/M Phase” value (MCF-7 cells [2]; 3 h, 10 µM)?
**A.** Its value is 14.9% and 14.95 ± 1.08 %.

**Q.** And the “Cell Disturbance, S Phase” value (MCF-7 cells [2]; 3 h, 10 µM)?
**A.** The value was 51.8% and 51.79 ± 0.86 %.

**Q.** And the viability at 48 h, 10 µM ([3]; MCF-7 cells pretreated with 4-hydroxytamoxifen, 4-OHT 0.1 µM for 1 h, then 8 at 10 µM, read-out: viability of 4-OHT-pretreated MCF-7 cells)?
**A.** Its viability at 48 h, 10 µM is 84.4 ± 1.1%.

**Q.** And the viability at 48 h, 10 µM ([3]; MCF-7 cells, 8 at 10 µM, no 4-OHT, read-out: viability of MCF-7 cells)?
**A.** The viability at 48 h, 10 µM was 76.1 ± 1.6%.

**Q.** What about the inhibition at 5 µM (MCF-7 cells [4]; 5 µM) of the same molecule?
**A.** Its inhibition at 5 µM is 16.8%.

**Q.** What about the inhibition at 10 µM (MCF-7 cells [4]; 10 µM) of the same molecule?
**A.** Its inhibition at 10 µM is 20.4%.

**Q.** And the cell viability (HaCaT keratinocytes; 24 h, 1.0 µM)?
**A.** Its cell viability is 102.7 ± 7.7 % of control.

**Q.** And the cell viability (HaCaT keratinocytes; 24 h, 10.0 µM)?
**A.** Its cell viability is 93.1 ± 6.9 % of control.

**Q.** What about the cell viability (HaCaT keratinocytes; 24 h, 100.0 µM) of the same molecule?
**A.** Its cell viability is 64.3 ± 1.9 % of control.

**Q.** And the cell viability (HaCaT keratinocytes; 48 h, 1.0 µM)?
**A.** Its cell viability is 95.8 ± 1.9 % of control.

**Q.** What about the cell viability (HaCaT keratinocytes; 48 h, 10.0 µM) of the same molecule?
**A.** The cell viability was 97.7 ± 1.4 % of control.

**Q.** And the cell viability (HaCaT keratinocytes; 48 h, 100.0 µM)?
**A.** Its cell viability is 36.8 ± 7.0 % of control.

**Q.** For `COC1=C(c2c[nH]c3ccccc23)C(=O)C(CC=C(C)C)=C(c2c[nH]c3ccccc23)C1=O` [Compound 6, kumbicin D], which “Biofilm formation, MIC50” value [1] is on record?
**A.** Its value is 10.34 ± 0.98 µM.

**Q.** And the “Biofilm formation, MIC50” value (Candida albicans KMM 455)?
**A.** Its value is 8.36 ± 0.95 µM.

**Q.** And the “effect on cells” value (A549 cells)?
**A.** Its value is “weak effects”.

**Q.** What about the cell viability (HaCaT keratinocytes; 24 h, 1.0 µM) of the same molecule?
**A.** Its cell viability is 97.2 ± 5.7 % of control.

**Q.** And the cell viability (HaCaT keratinocytes; 24 h, 10.0 µM)?
**A.** The cell viability was 98.6 ± 3.5 % of control.

**Q.** What about the cell viability (HaCaT keratinocytes; 24 h, 100.0 µM) of the same molecule?
**A.** Its cell viability is 21.5 ± 3.3 % of control.

**Q.** And the cell viability (HaCaT keratinocytes; 48 h, 1.0 µM)?
**A.** Its cell viability is 100.5 ± 3.3 % of control.

**Q.** What about the cell viability (HaCaT keratinocytes; 48 h, 10.0 µM) of the same molecule?
**A.** The cell viability was 80.0 ± 0.1 % of control.

**Q.** And the cell viability (HaCaT keratinocytes; 48 h, 100.0 µM)?
**A.** The cell viability was 11.6 ± 3.5 % of control.

**Q.** And the “Growth inhibition, MIC50” value [5]?
**A.** The value was 11.42 ± 1.02 µM.

**Q.** What about the MIC50 ([5]; Escherichia coli) of the same molecule?
**A.** The MIC50 was 7 to 11 µM (≈ 3.06 to 4.8 µg/mL).

**Q.** What about the “effect on cells” value (HepG2 cells) of the same molecule?
**A.** The value was “weak effects”.
